Experimental data taken from US20080234226A1, “Use Of Iron(III) Complex Compounds For The Preparation Of A Medicament For Oral Treatment Of Iron Deficiency States In Patients With Chronic Inflammatory Bowel Disease” (VIFOR (INTERNATIONAL) AG, priority 2005, published 2008).
Like-named read-outs stand apart in the source and are kept apart here. Marks after values point to notes of the source that are not given here.

Assays:
white mice = conditions: cited from earlier work
[1] = tested on: patients with chronic inflammatory bowel disease; experiment: Markers of oxidative stress (plasma, urine) before and after 14 days oral iron therapy; conditions: for P-malondialdehyde / P-beta-carotene / P-cysteine / P-cysteinyl-glycine / P-glutathione / P-homocysteine / P-vitamin A / P-vitamin C / P-vitamin E: plasma; for P-malondialdehyde / P-beta-carotene / P-cysteine / P-cysteinyl-glycine / P-glutathione / P-homocysteine / P-vitamin A / P-vitamin C / P-vitamin E / U-8-iso-PGF2α: mean (SEM); for U-8-iso-PGF2α: urine
Procedure: (§1) Analysis of the blood, urine and stool and the clinical evaluation of the disease were carried out on day 1 and 15.
(§2) The tablets were taken in accordance with the manufacturer's recommendations. Patient compliance was defined as the consumption of the tablets handed out, 80% being regarded as satisfactory.
(§3) Blood samples were taken, after fasting during the night, on the morning of day 1 and day 15.
Urine samples were collected on the morning of day 1 and day 15 and analysed for creatinine. Butyl-hydroxy-toluene (BHT) was added to 2 ml urine to a final concentration of 20 mM. The samples were then stored at −80° C. until analysed for urine 8-isoprostaglandin F2α (8-iso-PGF2α).
The values were analysed using the Wilcoxon test for pair differences, and the median and range are stated. The comparison of ratios was evaluated with the Fisher Exact test. P values of less than 0.05 are considered to be statistically significant. The data were analysed using the GraphPad Prism 4 for Windows statistics software package (GraphPad Software, Inc., San Diego, USA).

[2] = tested on: patients with chronic inflammatory bowel disease; experiment: Clinical disease activity, symptoms, compliance and tolerability during oral iron therapy; type: in vivo, human; conditions: for total number of defecations per week: median (range)
Procedure: The status of the clinical disease was recorded before (day 1) and after (day 15) the iron therapy. The clinical disease activity was evaluated in patients with Crohn's disease with the “Harvey-Bradshaw Simple Index of Crohn's Disease Activity” (Harvey, R F., Bradshaw, J M., Lancet, 1980; 1:514). The Harvey-Bradshaw Simple Index is based on 5 parameters: general well-being, abdominal pain, stool frequency, abdominal mass and extraintestinal complications. The maximum score is 25 and scores of ≧5 indicate active Crohn's disease.
In patients with colitis ulcerosa, the “Simple Clinical Colitis Activity Index” was recorded (Walmsley, R S., Ayres, R C., Pounder, R E., Allan, R N., Gut 1998; 43; 29-32). The Simple Clinical Colitis Activity Index is based on 6 parameters: general well-being, stool frequency during the day and during the night, urgency of defecation, blood in the stool and extraintestinal complications. The maximum score is 20 and values of ≧4 indicate active colitis ulcerosa.
The Harvey-Bradshaw Simple Index and the Simple Clinical Colitis Activity Index are the same in respect of structure and the clinical significance of a given change in the scores. In order to allow the results of patients with Crohn's disease and colitis ulcerosa to be considered together, the activity scores were calculated as the actual score divided by the maximum score.
All the patients completed the particular Crohn's Disease Activity Index (CDAI) diary card (Best, W R., Becktel, J M., Singleton, J W., Kern, F. Jr., Gastroenterology 1976; 70:439-444) in the week before the start of the iron therapy and during the two weeks of iron therapy. The CDAI diary card comprises daily recording of general well-being, abdominal pain and the number of liquid or very soft stools. The total of seven daily records gives a score for each symptom. The higher the score, the more the patient is adversely affected. The medicament was administered during the study for 14 days and the mean for the two weeks is therefore used for the analysis. The patients also documented the occurrence of nausea before and during the iron therapy.
Patients who discontinued treatment with the medicament because of a deterioration in the symptoms were included in the analysis of the clinical disease activity and the symptom scores. Their disease activity scores were increased by two points, and the symptom scores were increased by one point per day.

[3] = tested on: patients with chronic inflammatory bowel disease; conditions: in vivo
Procedure: as §1, §2, §3
The values were analysed using the Wilcoxon test for pair differences, and the median and range are stated. The comparison of ratios was evaluated with the Fisher Exact test. […] The data were analysed using the GraphPad Prism 4 for Windows statistics software package (GraphPad Software, Inc., San Diego, USA).

[4] = mean of differences after vs before 14 days treatment
[5] = after 14 days oral treatment (day 15)

Question: Which LD50 (white mice) does the source give for `O=S(=O)([O-])[O-].[Fe+2]` [Iron(II) sulfate, iron(II) sulfate] here?
Answer: 230 mg iron/kg

Question: What about the “change in plasma MDA values” [1, 4] of the same compound?
Answer: 95 nmol/L

Question: And the “change in urine iso-PGF2α values” [1, 4]?
Answer: 194 pg/mg creatinine

Question: What about the P-malondialdehyde [1, 5] of the same compound?
Answer: 395 (25)* nmol/l

Question: And the P-beta-carotene ([1]; after 14 days oral treatment)?
Answer: 0.67 (0.10) μmol/l

Question: What about the P-cysteine ([1]; after 14 days oral treatment) of the same compound?
Answer: 199 (13) μmol/l

Question: What about the P-cysteinyl-glycine ([1]; after 14 days oral treatment) of the same compound?
Answer: 16.6 (1.2) μmol/l

Question: What about the P-glutathione ([1]; after 14 days oral treatment) of the same compound?
Answer: 5.08 (0.54) μmol/l

Question: What about the P-homocysteine ([1]; after 14 days oral treatment) of the same compound?
Answer: 4.58 (0.47) μmol/l

Question: And the “P-vitamin A” value ([1]; after 14 days oral treatment)?
Answer: 1.8 (0.2) μmol/l

Question: And the “P-vitamin C” value ([1]; after 14 days oral treatment)?
Answer: 58.6 (5.4) μmol/l

Question: And the “P-vitamin E” value ([1]; after 14 days oral treatment)?
Answer: 29.3 (1.5) μmol/l

Question: And the P-malondialdehyde ([1]; before treatment (day 1))?
Answer: 294 (25) nmol/l

Question: What about the P-beta-carotene ([1]; before treatment) of the same compound?
Answer: 0.67 (0.09) μmol/l

Question: And the P-cysteine ([1]; before treatment)?
Answer: 203 (11) μmol/l

Question: And the P-cysteinyl-glycine ([1]; before treatment)?
Answer: 16.7 (1.1) μmol/l

Question: What about the P-glutathione ([1]; before treatment) of the same compound?
Answer: 5.05 (0.48) μmol/l

Question: What about the P-homocysteine ([1]; before treatment) of the same compound?
Answer: 4.87 (0.59) μmol/l

Question: What about the “P-vitamin A” value ([1]; before treatment) of the same compound?
Answer: 1.7 (0.2) μmol/l

Question: And the “P-vitamin C” value ([1]; before treatment)?
Answer: 60.9 (6.0) μmol/l

Question: What about the “P-vitamin E” value ([1]; before treatment) of the same compound?
Answer: 30.2 (1.8) μmol/l

Question: And the U-8-iso-PGF2α [1, 5]?
Answer: 629 (124) pg/mg creatinine

Question: And the U-8-iso-PGF2α ([1]; before treatment (day 1))?
Answer: 417 (46) pg/mg creatinine

Question: What about the “influence on general wellbeing or abdominal pain score” value ([2]; CDAI diary card) of the same compound?
Answer: Neither iron(II) sulfate nor iron(III)-polymaltose complex had an influence

Question: What about the “total number of defecations per week” value ([2]; before treatment) of the same compound?
Answer: 19 (7-106)

Question: And the “change of clinical disease activity indices” value ([2]; day 15 vs day 1)?
Answer: Neither the treatment with iron(II) sulfate (p=0.45) nor the treatment with iron(III)-polymaltose complex (p=0.80) substantially changed the clinical disease activity indices

Question: And the “total number of defecations per week” value ([2]; during the treatment)?
Answer: 24 (7-55)

Question: And the “patients who discontinued the treatment (intolerable bowel movements, abdominal pain and nausea)” value ([2]; of n=21 iron(II) sulfate, n=20 iron(III)-polymaltose complex)?
Answer: Three patients

Question: What about the Increased nausea reported ([2]; patients reporting / patients treated) of the same compound?
Answer: 9/21

Question: What about the B-ESR [3] of the same compound?
Answer: 11 (2) mm/h

Question: And the B-erythrocyte count [3]?
Answer: 4.8 (0.1) 10^12/l

Question: And the B-haematocrit [3]?
Answer: 41 (1) %

Question: And the B-haemoglobin [3]?
Answer: 13.1 (0.4) g/dl

Question: What about the B-leukocyte count [3] of the same compound?
Answer: 6.5 (0.5) 10^9/l

Question: What about the B-platelet count [3] of the same compound?
Answer: 324 (23) 10^9/l

Question: And the B-reticulocyte count [3]?
Answer: 0.068 (0.006) 10^12/l

Question: And the “Hypochromic red cells (HYPO)” value [3]?
Answer: 10.4 (3.6) %

Question: And the MCH [3]?
Answer: 27 (0.8) pg

Question: What about the MCHC [3] of the same compound?
Answer: 31.8 (0.4) g/dl

Question: What about the MCV [3] of the same compound?
Answer: 86 (1.6) fl

Question: What about the “Reticulocyte haemoglobin (CHr)” value [3] of the same compound?
Answer: 29.3 (0.8) pg

Question: And the S-CRP [3]?
Answer: 7 (2) mg/l

Question: And the S-ferritin [3]?
Answer: 13 (2) μg/l

Question: What about the S-iron [3] of the same compound?
Answer: 11.1 (2.0) μmol/l

Question: And the “S-total iron binding capacity” value [3]?
Answer: 81 (2) μmol/l

Question: What about the “decrease in the hypochromic red cells” value [3] of the same compound?
Answer: −2.5%

Question: And the “decrease in the serum total iron binding capacity” value [3]?
Answer: -7 µmol/L

Question: What about the “increase in blood reticulocyte count” value [3] of the same compound?
Answer: 1.6e+10 L⁻¹

Question: And the increase in s-ferritin [3]?
Answer: 12 µg/L

Question: And the “increase in the reticulocyte haemoglobin” value [3]?
Answer: 1.9 pg

Question: What about the “increase of blood haemoglobin” value [3] of the same compound?
Answer: Neither iron(II) sulfate nor iron(III)-polymaltose complex increased the blood haemoglobin

Question: What about the B-ESR ([3]; po) of the same compound?
Answer: 10 (2) mm/h

Question: What about the B-erythrocyte count ([3]; po) of the same compound?
Answer: 4.8 (0.1) 10^12/l

Question: What about the B-haematocrit ([3]; po) of the same compound?
Answer: 42 (1)* %

Question: And the B-haemoglobin ([3]; po)?
Answer: 13.3 (0.3) g/dl

Question: And the B-leukocyte count ([3]; po)?
Answer: 6.3 (0.4) 10^9/l

Question: What about the B-platelet count ([3]; po) of the same compound?
Answer: 306 (21) 10^9/l

Question: What about the B-reticulocyte count ([3]; po) of the same compound?
Answer: 0.084 (0.007) 10^12/l

Question: And the “Hypochromic red cells (HYPO)” value ([3]; po)?
Answer: 8.8 (3.2)* %

Question: And the MCH ([3]; po)?
Answer: 28 (0.8)*# pg

Question: And the MCHC ([3]; po)?
Answer: 32.0 (0.3) g/dl

Question: And the MCV ([3]; po)?
Answer: 87 (1.3)* fl

Question: What about the “Reticulocyte haemoglobin (CHr)” value ([3]; po) of the same compound?
Answer: 31.1 (0.7)* pg

Question: What about the S-CRP ([3]; po) of the same compound?
Answer: 6 (2) mg/l

Question: What about the S-ferritin ([3]; po) of the same compound?
Answer: 25 (3)*# μg/l

Question: And the S-iron ([3]; po)?
Answer: 14.2 (2.2) μmol/l

Question: And the “S-total iron binding capacity” value ([3]; po)?
Answer: 74 (2)*# μmol/l
